Among the data in ChEMBL document CHEMBL1158132, “26,27-cyclosterols and other polyoxygenated sterols from a marine sponge Topsentia sp” (2006) are EC50 values, retold here.

Holding throughout (assay type): functional
Settings in all cases: read-out: ED50 (the source's name)

For assay [1], the system named is HCT-15. In words: Cytotoxicity against human HCT-15 cells.
Assay [2] has as its system XF498. Kind of assay: Cytotoxicity against human XF498 cells.
In assay [3] the test system is SK-MEL-2. In words: Cytotoxicity against human SK-MEL-2 cells.
The subject of assay [4] is SK-OV-3. Kind of assay: Cytotoxicity against human SKOV3 cells.
For assay [5], the system named is A549. Kind of assay: Cytotoxicity against human A549 cells.

≈ marks a conversion by molar mass, not a printed value.

For the molecule `CC(C)=C[C@@H](C)[C@H]1CC[C@@H]2[C@]1(C)CC[C@H]1[C@]23C=C[C@]2(CCCC[C@]12C)OO3`, the EC50 was 21.4 µg/mL (≈ 57.7 µM) in assay [1]; more than 30 µg/mL in assay [2]; 25.9 µg/mL (≈ 69.9 µM) in assay [3]; 19.4 µg/mL (≈ 52.4 µM) in assay [4]; 30 µg/mL (≈ 81 µM) in assay [5].
On to `CC(C)[C@@H](C)/C=C/[C@@H](C)[C@H]1CC[C@@H]2[C@]1(C)CC[C@H]1[C@]23C=C[C@]2(CCCC[C@]12C)OO3`, for which the EC50 in assay [1] turned out to be 21.1 µg/mL (≈ 51.1 µM); in assay [2], 24.7 µg/mL (≈ 59.9 µM); in assay [3], 19.4 µg/mL (≈ 47 µM); in assay [4] it was 17.8 µg/mL (≈ 43.1 µM); in assay [5], 17.5 µg/mL (≈ 42.4 µM).
With `CC(C)C/C=C/[C@@H](C)[C@H]1CC[C@H]2C3=C(CC[C@]12C)[C@@]1(C)CC[C@H](O)CC1=CC3=O`, the EC50 in assay [1] is 38.4 µg/mL (≈ 96.8 µM); in assay [2], more than 30 µg/mL; in assay [3], more than 30 µg/mL; in assay [4] it was more than 30 µg/mL; in assay [5] it was more than 30 µg/mL.
With `CC(C)[C@@H](C)/C=C/[C@@H](C)[C@H]1CCC2=C3[C@H](O)[C@@H]4O[C@@]45C[C@@H](O)CC[C@]5(C)[C@H]3CC[C@@]21C`, the EC50 is 17.9 µg/mL (≈ 41.8 µM) in assay [1]; more than 30 µg/mL in assay [2]; more than 30 µg/mL in assay [3]; 17.9 µg/mL (≈ 41.8 µM) in assay [4]; more than 30 µg/mL in assay [5].
Take `CC(C)C/C=C/[C@@H](C)[C@H]1CC[C@@H]2[C@]1(C)CC=C1[C@]23C=C[C@]2(CCCC[C@]12C)OO3`: the EC50 in assay [1] was 4.7 µg/mL (≈ 11.9 µM); in assay [2] it was 11.4 µg/mL (≈ 28.7 µM); in assay [3], 5.2 µg/mL (≈ 13.1 µM); in assay [4] it was 6.3 µg/mL (≈ 15.9 µM); in assay [5], 6.3 µg/mL (≈ 15.9 µM).
Regarding `COc1cccc2c1C(=O)c1c(O)c3c(c(O)c1C2=O)C[C@@](O)(C(=O)CO)C[C@@H]3O[C@H]1C[C@H](N)[C@H](O)[C@H](C)O1` [DOXORUBICIN], the EC50 was 0.13 µg/mL (≈ 0.239 µM) in assay [1]; 0.07 µg/mL (≈ 0.129 µM) in assay [2]; 0.08 µg/mL (≈ 0.147 µM) in assay [3]; 0.19 µg/mL (≈ 0.35 µM) in assay [4]; 0.08 µg/mL (≈ 0.147 µM) in assay [5].
Regarding `CCC(C)/C=C/[C@@H](C)[C@H]1CC[C@@H]2[C@]1(C)CC=C1[C@]23C=C[C@]2(CCCC[C@]12C)OO3` (stereo not given in full) [TOPSENTISTEROL A3], the EC50 came to 4.2 µg/mL (≈ 10.6 µM) in assay [1]; 6.2 µg/mL (≈ 15.6 µM) in assay [2]; 4.6 µg/mL (≈ 11.6 µM) in assay [3]; 7.1 µg/mL (≈ 17.9 µM) in assay [4]; 5.4 µg/mL (≈ 13.6 µM) in assay [5].
Take `CC(C)[C@H](C)/C=C/[C@@H](C)[C@H]1CC[C@H]2C3=C(CC[C@]12C)[C@@]1(C)CC[C@H](O)C[C@@]12O[C@H]2[C@H]3O` [TOPSENTISTEROL B4]: the EC50 in assay [1] was found to be 14.1 µg/mL (≈ 32.9 µM); in assay [2], 19 µg/mL (≈ 44.3 µM); in assay [3], 11.3 µg/mL (≈ 26.4 µM); in assay [4] it was 7.8 µg/mL (≈ 18.2 µM); in assay [5], 9.7 µg/mL (≈ 22.6 µM).
The matching figures for `CC(C)[C@H](C)/C=C/[C@@H](C)[C@H]1CCC2=C3[C@H](O)[C@@H]4O[C@@]45C[C@@H](O)CC[C@]5(C)[C@H]3CC[C@@]21C` [TOPSENTISTEROL B5]: 18.4 µg/mL (≈ 42.9 µM), more than 30 µg/mL, 5.5 µg/mL (≈ 12.8 µM), 7.9 µg/mL (≈ 18.4 µM) and 13.9 µg/mL (≈ 32.4 µM).
`C[C@H](CC[C@@H](C)[C@H]1CC[C@H]2C3=CC(=O)[C@@]4(O)C[C@@H](O)CC[C@]4(C)[C@@]3(O)CC[C@]12C)[C@@H]1C[C@H]1C` [TOPSENTISTEROL C1]: the EC50 came to 6.1 µg/mL (≈ 13.3 µM) in assay [1]; 17.7 µg/mL (≈ 38.6 µM) in assay [2]; 11.3 µg/mL (≈ 24.6 µM) in assay [3]; 4.2 µg/mL (≈ 9.16 µM) in assay [4]; 7.7 µg/mL (≈ 16.8 µM) in assay [5].
For `CO[C@@H]1C=C2[C@@H]3CC[C@H]([C@H](C)/C=C/[C@@H](C)C(C)C)[C@@]3(C)CC[C@]2(O)[C@@]2(C)CC[C@H](O)C[C@]12O` [TOPSENTISTEROL C3], the EC50 in assay [1] stood at 4.3 µg/mL (≈ 9.33 µM); in assay [2] it was 4.7 µg/mL (≈ 10.2 µM); in assay [3], 11.5 µg/mL (≈ 25 µM); in assay [4], 7.8 µg/mL (≈ 16.9 µM); in assay [5], 5.6 µg/mL (≈ 12.2 µM).
With `CC(C)[C@H](C)/C=C/[C@@H](C)[C@H]1CC[C@H]2C3=C(CC[C@]12C)[C@@]1(C)CC[C@H](O)CC1=CC3=O` [TOPSENTISTEROL D3], the EC50 in assay [1] is 33.6 µg/mL (≈ 81.8 µM); in assay [2], more than 30 µg/mL; in assay [3] it was 24.5 µg/mL (≈ 59.7 µM); in assay [4] it was more than 30 µg/mL; in assay [5], more than 30 µg/mL.
